Assay results from patent US20210393742A1, “LONG-ACTING INTERLEUKIN-15 RECEPTOR AGONIST IN COMBINATION WITH ANOTHER PHARMACOLOGICALLY ACTIVE AGENT” (Nektar Therapeutics, priority 2018, published 2021).

Key:
Daudi B cell lymphoma [1] = test: Survival in Daudi B cell lymphoma xenograft model, combination with daratumumab (Example 3); format: in vivo, mice; settings: post tumor injection; daratumumab 0.5 mg/kg IP day 14; agonist 0.3 mg/kg SC days 14, 21, 28
Protocol: SCID mice (N=8/group) inoculated intravenously with 1×10^7 Daudi B cell lymphoma cells were treated with a single dose of daratumumab (0.5 mg/kg, IP, 14 days after inoculation) and a total of three doses of mono(methoxyPEG-N-butanamide)40 kD interleukin-15 (0.3 mg/kg, SC, administered 14, 21 and 28 days after tumor inoculation). Also evaluated were untreated mice as a control and mice treated with daratumumab as a single agent therapy. Survival of tumor-inoculated mice was measured by body condition scoring as endpoint marker. Results are provided graphically in FIG. 5.

NK cells [2] = test: CD16 surface expression on bone marrow NK cells of Daudi lymphoma bearing mice (Example 10); format: in vivo; settings: bone marrow day 24
Protocol: (§1) Balb/c mice bearing Daudi B cell lymphoma tumors in the bone marrow (n=6/group) were intraperitoneally administered a single 0.5 mg/kg dose of the human CD38 protein targeting clinical antibody daratumumab (DARZALEX®, Janssen Biotech) or a nonspecific control antibody with a matching isotype on day 14 after Daudi cell intravenous inoculation. Additional groups were treated with (i) mono(mPEG-N-butanamide)40 kD interleukin-15 (Conjugate 1) administered subcutaneously at a dose of 0.3 mg/kg as a single agent on days 14 and 21 after Daudi cell inoculation, or (ii) a combination treatment of Conjugate 1 administered subcutaneously at doses of 0.03 mg/kg or 0.3 mg/kg on days 14 and 21 after Daudi cell inoculation and daratumumab administered intraperitoneally at a dose of 0.5 mg/kg on day 14 after Daudi cell inoculation.
Three days following the second Conjugate 1 administration (day 24 after Daudi inoculation), bone marrow was collected and the NK cell fraction was measured by flow cytometry in total bone marrow. The fraction of NK cells expressing the cell surface CD16 receptor that is known to mediate antibody dependent cellular cytotoxicity mechanism in the presence of tumor targeting antibodies, and the change in CD16 expression per cell basis on NK cells are shown in FIGS. 13A and 13B, respectively.

NK cells [3] = test: NKG2A and NKG2D surface expression on bone marrow NK cells of Daudi lymphoma bearing mice (Example 4); format: in vivo; settings: bone marrow day 24; Conjugate 1 0.3 mg/kg SC days 14 and 21; antibody 0.5 mg/kg IP day 14
Protocol: as §1, with “administered mono(methoxyPEG-N-butanamide)40” for “treated with (i) mono(mPEG-N-butanamide)40”, “1)” for “1) administered”, “administered” for “(ii)”
Three days following the second Conjugate 1 administration (day 24 after Daudi inoculation), bone marrow was collected and the NK cell fraction was measured by flow cytometry in total bone marrow. Expression of the cell surface activating receptor NKG2D and the inhibitory checkpoint receptor NKG2A are shown in FIGS. 7A and 7B, respectively.

Daudi B cell lymphoma [4] = test: Daudi cell counts in bone marrow, low and high doses (Example 14); format: in vivo, mice; settings: day 24, single agent
Protocol: SCID mice (N=6/group) were intravenously inoculated with 10 million Daudi cells on Day 0 and treated with a single dose of a lower or higher dose of daratumumab (0.05 mg/kg or 5 mg/kg IP, 14 days following Daudi cell inoculation) and two doses of either lower or higher dose mono(methoxyPEG-N-butanamide)interleukin-15 (compound 1) (0.03 mg/kg or 0.6 mg/kg intravenously, one dose at each of 14 and 21 days after inoculation). Mice were also treated with the single agent therapies: daratumumab (0.05 mg/kg or 5 mg/kg IP, 14 days following Daudi cell inoculation) or two doses of mono(methoxyPEG-N-butanamide)40 kD interleukin-15 (compound 1) (0.03 mg/kg or 0.6 mg/kg intravenously, 14 and 21 days after inoculation). Daudi cell numbers in the bone marrow were assessed three days following the second dose of mono(methoxyPEG-N-butanamide)40 kD interleukin-15 (day 24) by flow cytometry as shown in FIGS. 17A and 17B.

NK cells [5] = test: Granzyme B expression per cell in bone marrow NK cells of Daudi lymphoma bearing mice (Example 11); format: in vivo; settings: bone marrow day 24; Conjugate 1 0.3 mg/kg; antibody 0.5 mg/kg
Protocol: as §1, with “(DARZALEX®),” for “(DARZALEX®,”
Three days following the second Conjugate 1 administration (day 24 after Daudi inoculation), bone marrow was collected and the NK cell fraction was measured by flow cytometry in total bone marrow.

[6] = tested on: STAT5 phosphorylation in lymphocytes; test: STAT5 phosphorylation in lymphocytes at time points after administration in mice, flow cytometry; format: in vivo
From the text: Conventional approaches, such as those involving radiolabeling a compound, administering the compound in vivo, and determining its clearance, can be used to assess whether a compound proposed to be a long-acting, IL-15 receptor agonist is “long-acting” (i.e., has a clearance that is longer than that of IL-15 administered in the same in vivo system). For the purposes herein, the long-acting nature of a long-acting IL-15 receptor agonist may be, and is typically determined using flow cytometry to measure STAT5 phosphorylation in lymphocytes at various time points after administration of the agonist to be evaluated in mice. As a reference, the signal is lost by around 24 hours with IL-15, but is sustained for a period greater than that for a long-acting IL-15 agonist.

CD56+ human NK cells = test: Dose response of human NK cell proliferation in CFSE labeled PBMCs (Example 8); format: cell-based; settings: 5 days
Protocol: Human peripheral blood mononuclear cell (PBMCs) labeled with a CFSE preparation were incubated for 5 days in vitro in the presence of increasing doses of rhIL-15 (dose range 1 ng/ml-100 ng/ml, 5 point, 3 fold dilutions) or a long-acting IL-15 receptor agonist (mono(mPEG-butanamide)IL-15) (dose range 10 ng/ml-1000 ng/ml, 5 point, 3 fold dilutions). After the incubation period, cell proliferation as indicated by the decrease of CFSE in the cells that had undergone cell doublings was measured with flow cytometry measuring CFSE levels in CD56+ human NK cells within the PBMCs preparation.

[7] = tested on: STAT5 phosphorylation in KHYG-1 cells; test: Phosphorylation of STAT5 in KHYG-1 cells (Example 7); format: cell-based, human; settings: 10 minutes
Protocol: KHYG-1 cells were cultured in RPMI-1640 medium supplemented with 20% FBS, 2 mM L-glutamine, and 20 ng/mL IL-2 (Complete growth medium) in a humidified incubator at 37° C. and 5% CO2.
One day prior to treatment with test compounds, cells were seeded at a density of 500,000 viable cells/ml in Complete growth medium and incubated overnight under normal growth conditions. On the day of the assay, KHYG-1 cells were washed 3 times with DPBS, resuspended in assay medium (RPMI-1640 medium supplemented with 20% FBS, 2 mM L-glutamine), and incubated for 4-5 hours at 37° C., 5% CO2. Cells were adjusted to the appropriate density (8×10^5 cells/mL) in assay medium and 50,000 cells/well were aliquoted into wells of a 96-well plate (View-Plate 96, Perkin-Elmer).
KHYG-1 cells were stimulated with IL-15 or a long-acting IL-15 receptor agonist (mono(mPEG-butanamide)IL-15) followed by incubation at 37° C., 5% CO2 for 10 minutes. Treated cells were lysed on ice.
Detection of phospho-STAT5 protein levels in cell lysates was performed using the Phospho(Tyr694)/Total STAT5a,b Assay Whole Cell Lysate kit (MSD product #K15163D). Relative light unit (RLU) signal corresponding to phosphor-STAT5 was collected using a Sector® Imager 2400 plate reader (MSD) with the results provided in FIG. 10A.

Daudi B cell lymphoma [8] = test: Survival in Daudi B cell lymphoma xenograft model, combination with rituximab (Example 1); format: in vivo, mice; settings: after about 30 days; rituximab 40 mg/kg IP, days 14 and 17
Protocol: At day 0, SCID mice were intravenously injected with 1×10^7 Daudi cells. The mice were divided into four groups. On days 14 and 17 post-Daudi cell injection, the groups were treated by injection as follows: Group 1: isotype control antibody, Group 2: 40 mg/kg IP rituximab, Group 3: 0.3 mg/kg mono(methoxyPEG-N-butanamide)40 kD interleukin-15 (a long-acting IL-15 receptor agonist), Group 4: 40 mg/kg IP rituximab and 0.3 mg/kg SC mono(methoxyPEG-N-butanamide)40 kD interleukin-15 (combination).
The survival rate was determined by measuring the onset of hind limb paralysis as a surrogate parameter.

[9] = Conjugate 1 0.3 mg/kg, antibody 0.5 mg/kg

Daratumumab: anti-CD38 monoclonal antibody (DARZALEX®, Janssen Biotech) [reference compound]
median survival (Daudi B cell lymphoma [1]): 28.5 days | Fraction of NK cell expressing cell surface CD16 (mean value) (NK cells [2]; Conjugate 1 0.3 mg/kg SC days 14 and 21, antibody 0.5 mg/kg IP day 14): 81% | CD16 mean fluorescence intensity (MFI mean value) (NK cells [2]; [9]): 448 | Relative CD16 expression compared to untreated condition (NK cells [2]; [9]): No increase (1x) | % NK cells expressing NKG2A (mean, n = 6) (NK cells [3]): 54.83% | % NK cells expressing NKG2D (mean, n = 6) (NK cells [3]): 10.22% | intra-bone marrow tumor cells depleted (Daudi B cell lymphoma [4]; high dose (daratumumab 5 mg/kg; compound 1 0.6 mg/kg)): 58% | intra-bone marrow tumor cells depleted (Daudi B cell lymphoma [4]; low dose (daratumumab 0.05 mg/kg; compound 1 0.03 mg/kg)): 30% | Granzyme B mean fluorescence intensity (MFI mean value) (NK cells [5]): 272 | Relative Granzyme B expression compared to untreated condition (NK cells [5]): No increase (0.7x)

rhIL-15: recombinant human interleukin-15 (SEQ ID NO: 1), unconjugated comparator [reference compound]
time by which the STAT5 phosphorylation signal is lost [6]: around 24 hours | EC50 (ng/ml)-% proliferation (CD56+ human NK cells): 2.28 ng/mL | Emax-% proliferation (CD56+ human NK cells): 69.6% | phosphorylation of STAT5 [7]: dose-dependent phosphorylation of STAT5

rituximab: anti-CD20 monoclonal antibody (Rituxan®, Genentech) [reference compound]
survival (Daudi B cell lymphoma [8]): 0%
